Where a SMILES comes first, the peptide text is derived from it. Bridges are numbered along the chain shown (N, C = ends). [ ]: non-standard residue; d: D form. The star is where a group is joined. hPhe(3-Cl-4-CF3) = N[C@@H](CCc1ccc(C(F)(F)F)c(Cl)c1)C(=O)O; NPrPhe(4-CF3) = CCCN[C@@H](Cc1ccc(C(F)(F)F)cc1)C(=O)O; NMeGly(cPent) = CN[C@H](C(=O)O)C1CCCC1; NMeD = CN[C@@H](CC(=O)O)C(=O)O; NMeL = CN[C@@H](CC(C)C)C(=O)O; Morpholide = C1CN(*)CCO1; Ac4c = NC1(C(=O)O)CCC1; NEtG = CCNCC(=O)O; Sar = CNCC(=O)O
Columns and labels:
[1] = target: GDP-bound HRAS wild-type protein (Homo sapiens, UniProt P01112); test: Binding to HRAS by surface plasmon resonance (SPR), Single Cycle Kinetics; details: ratio of KD for GDP-bound HRAS wild-type protein to KD for KRAS, SPR
Chain of GDP-bound HRAS wild-type protein (P01112 whole entry): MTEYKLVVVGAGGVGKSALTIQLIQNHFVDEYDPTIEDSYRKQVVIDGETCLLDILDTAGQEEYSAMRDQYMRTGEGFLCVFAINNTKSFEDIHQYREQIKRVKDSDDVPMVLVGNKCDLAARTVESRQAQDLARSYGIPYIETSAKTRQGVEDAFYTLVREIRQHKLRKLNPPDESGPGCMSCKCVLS

[2] = target: GDP-bound KRAS wild-type protein (Homo sapiens, UniProt P01116); test: Binding to KRAS by surface plasmon resonance (SPR), Single Cycle Kinetics; details: SPR, Single Cycle Kinetics, GDP-bound KRAS wild-type protein; read-out: KRAS KD
Chain of GDP-bound KRAS wild-type protein (P01116 whole entry): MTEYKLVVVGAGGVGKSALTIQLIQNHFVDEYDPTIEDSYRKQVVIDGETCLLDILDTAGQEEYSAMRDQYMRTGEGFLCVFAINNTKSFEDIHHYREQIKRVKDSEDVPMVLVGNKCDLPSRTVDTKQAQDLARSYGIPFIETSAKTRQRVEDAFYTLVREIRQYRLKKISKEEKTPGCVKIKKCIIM

[3] = system: human lung cancer strain NCI-H441; test: cells; details: NCI-H441, 96 h, read-out: NCI-H441 IC50 (nM), NCI-H441 cell proliferation, 4 days, CellTiter-Glo;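 further: cell proliferation inhibition after four days measured by CellTiter-Glo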
[4] = target: GDP-bound NRAS wild-type protein (Homo sapiens, UniProt P01111); test: Binding to NRAS by surface plasmon resonance (SPR), Single Cycle Kinetics; details: ratio of KD for GDP-bound NRAS wild-type protein to KD for KRAS, SPR
Chain of GDP-bound NRAS wild-type protein (P01111 whole entry): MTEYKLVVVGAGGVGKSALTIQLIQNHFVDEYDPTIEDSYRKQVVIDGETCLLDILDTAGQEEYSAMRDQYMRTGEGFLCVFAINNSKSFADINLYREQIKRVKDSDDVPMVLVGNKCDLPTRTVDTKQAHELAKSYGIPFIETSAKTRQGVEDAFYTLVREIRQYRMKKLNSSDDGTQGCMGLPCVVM

Row | Compound | HRAS/KRAS (KD ratio) [1] | Kd [2] [nM] | IC50 [3] [nM] | NRAS/KRAS (KD ratio) [4]
1 | CCO[C@@H]1C[C@H]2C(=O)NC3(CC(C)(C)C3)C(=O)N(C)[C@@H](C3CCCC3)C(=O)N(C)[C@H](C(=O)N3CCCCC3)CC(=O)N(C)[C@@H](CC)C(=O)N[C@@H]([C@@H](C)CC)C(=O)N(C)CC(=O)N(C)[C@H]3C/C=C\CCN(C3=O)[C@@H](Cc3ccc(C(F)(F)F)cc3)C(=O)N(C)CC(=O)N[C@@H](CCc3cc(F)c(C(F)(F)F)c(F)c3)C(=O)N2C1 [PP1945] | A (a compound having 10 or more and less than 20 is denoted as A) | 0.31 | 33.8 | AA (a compound having 20 or more is denoted as AA)
2 | CCO[C@@H]1C[C@H]2C(=O)N(C)C3(CCC3)C(=O)N(C)[C@@H](C3CCCC3)C(=O)N(C)[C@H](C(=O)N(C)C)CC(=O)N(C)[C@@H](CC3CC3)C(=O)N[C@@H]([C@@H](C)CC)C(=O)N3CCC[C@H]3C(=O)N(C)[C@H]3C/C=C\CCN(C3=O)[C@@H](Cc3ccc(C)cc3)C(=O)N(C)CC(=O)N[C@@H](CCc3cc(F)c(C(F)(F)F)c(F)c3)C(=O)N2C1 [PP1797] | A (a compound having 10 or more and less than 20 is denoted as A) | 0.1 | 5.1 | A (a compound having 10 or more and less than 20 is denoted as A)
3 | CC[C@H](C)[C@@H]1NC(=O)[C@H](CC)N(C)C(=O)C[C@@H](C(=O)N(C)CC)N(C)C(=O)[C@H](C2CCCC2)N(C)C(=O)C2(CC(C)(C)C2)NC(=O)[C@@H]2C[C@H](C)CN2C(=O)[C@H](CCc2cc(F)c(C(F)(F)F)c(F)c2)NC(=O)CN(C)C(=O)[C@H](Cc2ccc(C)cc2)N2CC/C=C\C[C@@H](C2=O)N(C)C(=O)CN(C)C1=O [PP1882] |  | 0.12 | 20.2 | 
4 | CCO[C@@H]1C[C@H]2C(=O)NC3(CC(C)(C)C3)C(=O)N(C)[C@@H](C3CCCC3)C(=O)N(C)[C@H](C(=O)N3CCCC3)CC(=O)N(C)[C@@H](CC)C(=O)N[C@@H]([C@@H](C)CC)C(=O)N(C)CC(=O)N(C)[C@H]3C/C=C\CCN(C3=O)[C@@H](Cc3ccc(C(F)(F)F)cc3)C(=O)N(C)CC(=O)N[C@@H](CCc3cc(F)c(C(F)(F)F)c(F)c3)C(=O)N2C1 [PP1944] | A (a compound having 10 or more and less than 20 is denoted as A) | 0.19 | 14.8 | A (a compound having 10 or more and less than 20 is denoted as A)
5 | CCO[C@@H]1C[C@H]2C(=O)NC3(CCC3)C(=O)N(C)[C@@H](C3CCCC3)C(=O)N(C)[C@H](C(=O)N(C)C)CC(=O)N(C)[C@@H](CC)C(=O)N[C@@H]([C@@H](C)CC)C(=O)N(C)CC(=O)N(C)[C@H]3C/C=C\CCN(C3=O)[C@@H](Cc3ccc(C(F)(F)F)cc3)C(=O)N(C)CC(=O)N[C@@H](CCc3cc(C)c(Cl)c(C)c3)C(=O)N2C1 [PP1821] | A (a compound having 10 or more and less than 20 is denoted as A) | 0.63 | 105 | A (a compound having 10 or more and less than 20 is denoted as A)
6 | CCCN1C(=O)CN(C)C(=O)CN(C)C(=O)[C@H]([C@@H](C)CC)NC(=O)[C@H](CC(C)C)N(C)C(=O)C[C@@H](C(=O)N2CCOCC2)N(C)C(=O)[C@H](C2CCCC2)N(C)C(=O)C2(CCC2)NC(=O)[C@@H]2CCCN2C(=O)[C@H](CCc2ccc(C(F)(F)F)c(Cl)c2)NC(=O)CN(CC)C(=O)[C@@H]1Cc1ccc(C(F)(F)F)cc1 [PP1950] ([NMeL]I[Sar][Sar][NPrPhe(4-CF3)][NEtG][hPhe(3-Cl-4-CF3)]P[Ac4c][NMeGly(cPent)][NMeD]-Morpholide; lactam N-11) | C (A compound having a KD ratio of 0.1 or more and less than 3 is denoted as C) | 1.9 | 32.5 | B (a compound having 3 or more and less than 10 is denoted as B)
7 | CCO[C@@H]1C[C@H]2C(=O)N(C)C3(CCCC3)C(=O)N(C)[C@@H](C3CCCC3)C(=O)N(C)[C@H](C(=O)N(C)C)CC(=O)N(C)[C@@H](CC)C(=O)N[C@@H]([C@@H](C)CC)C(=O)N(C)CC(=O)N(C)[C@H]3C/C=C\CCN(C3=O)[C@@H](Cc3ccc(C)cc3)C(=O)N(C)CC(=O)N[C@@H](CCc3cc(F)c(C(F)(F)F)c(F)c3)C(=O)N2C1 [PP1806] | B (a compound having 3 or more and less than 10 is denoted as B) | 0.06 | 4 | A (a compound having 10 or more and less than 20 is denoted as A)
8 | CCO[C@@H]1C[C@H]2C(=O)NC3(CC(C)(C)C3)C(=O)N(C)[C@@H](C3CCCC3)C(=O)N3CCC[C@@H]3CC(=O)N(C)[C@@H](CC)C(=O)N[C@@H]([C@@H](C)CC)C(=O)N(C)CC(=O)N(C)[C@H]3C/C=C\CCN(C3=O)[C@@H](CC3CCCCC3)C(=O)N(C)CC(=O)N[C@@H](CCc3cc(F)c(C(F)(F)F)c(F)c3)C(=O)N2C1 [PP1620] | B (a compound having 3 or more and less than 10 is denoted as B) | 6.4 | 170 | B (a compound having 3 or more and less than 10 is denoted as B)
9 | CCCN(C)C(=O)[C@@H]1CC(=O)N(C)[C@@H](CC(C)C)C(=O)N[C@@H]([C@@H](C)OC)C(=O)N(C)CC(=O)N(C)[C@H]2C/C=C\CCN(C2=O)[C@@H](Cc2ccc(C(F)(F)F)cc2)C(=O)N(C)CC(=O)N[C@@H](CCc2cc(F)c(C(F)(F)F)c(F)c2)C(=O)N2C[C@H](OCC)C[C@H]2C(=O)NC2(CC(C)(C)C2)C(=O)N(C)[C@@H](C2CCCC2)C(=O)N1C [PP1917] | A (a compound having 10 or more and less than 20 is denoted as A) | 0.29 | 22.5 | A (a compound having 10 or more and less than 20 is denoted as A)
10 | CCC[C@H]1C(=O)N[C@@H]([C@@H](C)CC)C(=O)N(C)CC(=O)N(C)[C@H]2C/C=C\CCN(C2=O)[C@@H](Cc2ccc(C(F)(F)F)cc2)C(=O)N(C)CC(=O)N[C@@H](CCc2cc(F)c(C(F)(F)F)c(F)c2)C(=O)N(C)[C@@H](COC)C(=O)NC2(CC(C)(C)C2)C(=O)N(C)[C@@H](C2CCCC2)C(=O)N(C)[C@H](C(=O)N(C)C)CC(=O)N1C [PP1936] | A (a compound having 10 or more and less than 20 is denoted as A) | 0.4 | 12.3 | AA (a compound having 20 or more is denoted as AA)
11 | CCO[C@@H]1C[C@H]2C(=O)NC3(CC(F)(F)C3)C(=O)N(C)[C@@H](C(CC)CC)C(=O)N(C)[C@H](CC)CC(=O)N(C)[C@@H](CC)C(=O)N[C@@H]([C@@H](C)CC)C(=O)N(C)CC(=O)N(C)[C@H]3C/C=C\CCN(C3=O)[C@@H](Cc3ccc(C(F)(F)F)cc3)C(=O)N(C)CC(=O)N[C@@H](CCc3cc(F)c(C(F)(F)F)c(F)c3)C(=O)N2C1 [PP1626] | A (a compound having 10 or more and less than 20 is denoted as A) | 3 | 108 | A (a compound having 10 or more and less than 20 is denoted as A)
12 | CCC[C@H]1C(=O)N[C@@H]([C@@H](C)CC)C(=O)N(C)CC(=O)N(C)[C@H]2C/C=C\CCN(C2=O)[C@@H](Cc2ccc(C)cc2)C(=O)N(C)CC(=O)N[C@@H](CCc2ccc(C(F)(F)F)c(Cl)c2)C(=O)N2C[C@@H](C)C[C@H]2C(=O)NC2(CCC2)C(=O)N(C)[C@@H](C2CCCC2)C(=O)N(C)[C@H](C(=O)N(C)CC)CC(=O)N1C [PP1848] |  | 0.11 | 22.5 | 
13 | CC[C@H](C)[C@@H]1NC(=O)[C@H](CC2CC2)N(C)C(=O)C[C@@H](C(=O)N(C)CC)N(C)C(=O)[C@H](C2CCCC2)N(C)C(=O)C2(CCC2)NC(=O)[C@@H]2C[C@@H](C)CN2C(=O)[C@H](CCc2ccc(C(F)(F)F)c(OC)c2)NC(=O)CN(C)C(=O)[C@H](Cc2ccc(C)cc2)N2CC/C=C\C[C@@H](C2=O)N(C)C(=O)CN(C)C1=O [PP1900] |  | 0.17 | 24.7 | 
14 | CC[C@H](C)[C@@H]1NC(=O)[C@H](CC(F)F)N(C)C(=O)C[C@@H](C(=O)N(C)C)N(C)C(=O)[C@H](C2CCCC2)N(C)C(=O)C2(CC(C)(C)C2)NC(=O)[C@@H]2C[C@H](C)CN2C(=O)[C@H](CCc2ccc(C(F)(F)F)c(OC)c2)NC(=O)CN(C)C(=O)[C@H](Cc2ccc(C)cc2)N2CC/C=C\C[C@@H](C2=O)N(C)C(=O)CN(C)C1=O [PP1875] |  | 0.083 | 7.7 | 
15 | CCO[C@@H]1C[C@H]2C(=O)NC3(CC(C)(C)C3)C(=O)N(C)[C@@H](C3CCCC3)C(=O)N(C)[C@H](C(=O)N(C)CC)CC(=O)N(C)[C@@H](C3CCC3)C(=O)N[C@@H]([C@@H](C)CC)C(=O)N(C)CC(=O)N(C)[C@H]3C/C=C\CCN(C3=O)[C@@H](Cc3ccc(C(F)(F)F)cc3)C(=O)N(C)CC(=O)N[C@@H](CCc3ccc(C(F)(F)F)c(OC)c3)C(=O)N2C1 [PP1985] | B (a compound having 3 or more and less than 10 is denoted as B) | 0.23 | 17.7 | 
